Where two headings read alike, the source gives them in different places.
Tests used:
Foxo3a mRNA [1] = experiment: Foxo3a mRNA by real-time RT-PCR in SKOV3 cells treated with 2-deoxyglucose; type: cell-based, human
Excerpt: In another embodiment, the subject invention relates to a method for decreasing the fertility of a subject, comprising administering a therapeutically effective amount of a glucose analog to the subject, wherein the glucose analog comprises one or more of (i) 2-deoxyglucose (2DG) or a combination of 2DG with chemical derivatives of 2DG with similarly documented ovarian activity; (ii) D-mannoheptulose; or (iii) 5-thio-D-glucose; and the administering step inhibits ovulation in the female subject. In a further embodiment, the glucose analog elevates the production of FOXO3a. In yet a further embodiment, FOXO3a prevents activation of oocytes during follicle development. In another embodiment, a therapeutically effective amount of at least one glucose analog is co-administered to the subject. In one example, FOXO3a mRNA and protein levels are induced in response to amino acid and glucose_deprivation in human ovarian carcinoma (SKOV3) cells. In order to establish a connection between FOXO3a and glucose deprivation, one example was used in which human ovarian carcinoma (SKOV3) cells were treated with 2-deoxyglucose (2-DOG or 2-DG) followed by mRNA analysis by real-time RT-PCR (FIG. 1) and immunoblot analysis (FIG. 2). 2-DG has been effectively employed as an alternative to glucose (deprivation) depletion. […] The fold increases were determined using a ΔΔCT method with cyclophilin A as the internal reference gene for each sample. […] Control cells (FED/MEM) were given complete media.

FOXO3a protein = experiment: Immunoblot analysis of FOXO3a protein levels in SKOV3 cells; type: cell-based, human; settings: vs FED/MEM control
Excerpt: In another embodiment, the subject invention relates to a method for decreasing the fertility of a subject, comprising administering a therapeutically effective amount of a glucose analog to the subject, wherein the glucose analog comprises one or more of (i) 2-deoxyglucose (2DG) or a combination of 2DG with chemical derivatives of 2DG with similarly documented ovarian activity; (ii) D-mannoheptulose; or (iii) 5-thio-D-glucose; and the administering step inhibits ovulation in the female subject. In a further embodiment, the glucose analog elevates the production of FOXO3a. In yet a further embodiment, FOXO3a prevents activation of oocytes during follicle development. In another embodiment, a therapeutically effective amount of at least one glucose analog is co-administered to the subject. In one example, FOXO3a mRNA and protein levels are induced in response to amino acid and glucose_deprivation in human ovarian carcinoma (SKOV3) cells. In order to establish a connection between FOXO3a and glucose deprivation, one example was used in which human ovarian carcinoma (SKOV3) cells were treated with 2-deoxyglucose (2-DOG or 2-DG) followed by mRNA analysis by real-time RT-PCR (FIG. 1) and immunoblot analysis (FIG. 2). […] The fold increases were determined using a ΔΔCT method with cyclophilin A as the internal reference gene for each sample. […]

FOXO3a = experiment: Mouse ovarian organ culture, FOXO3a mRNA and protein expression; type: cell-based
Foxo3a mRNA [2] = experiment: Pilot study in mice injected IP daily for two weeks: ovary Foxo3a mRNA by real-time RT-PCR; type: in vivo; settings: for Foxo3a mRNA levels in ovary, increase: two weeks, 5-week-old mice
Description: (§1) Not to be bound to any particular mechanism, it is believed that in one aspect of the present invention, by administering a therapeutically effective amount of the non-hormonal contraceptive composition to a female subject, cellular signals are induced activating a regulatory factor which blocks maturation of the […] and suppresses ovulation. In one example, a pilot study was conducted in which 5-week-old mice were intraperitoneally (IP) injected daily with 2-DG for two weeks. To determine an effective dose, 100, 300 and 600 mg/kg 2-DG was tested, with 6 animals in each treated group and 6 mice in the control group (0) injected with PBS. Following the two week study, the mice were sacrificed and the ovaries removed for mRNA and histological analyses. […] The contralateral ovary was used for histological analysis of the total numbers of follicle types in the entire ovary. Ovaries were fixed in 10% neutral buffered formalin, embedded in paraffin, then serially sectioned at 8 μm and stained with hematoxylin. Follicles were counted in every fifth section with random start. Follicles were classified following Pedersen and Peters guidelines. Most relevant to the data presented here, type 3a and 3b follicles were classified as having a single layer of granulosa cells surrounding the oocyte, and the two were distinguished from each other by the number of granulosa cells in that single layer. […] Only follicles containing an oocyte with a clearly visible nucleus were scored, to ensure that each follicle was counted only once. It should be noted that type 3a follicles are the first stage of folliculogenesis from the primordial follicle, the dormant stage at which FOXO3a acts as a brake. After follicles were counted in each fifth section, the total number of each type was multiplied by a correction factor of five to estimate total number of follicles in each ovary. The collective data is shown in the bar graph in FIG. 5. […] This is particularly advantageous as it allows lower dosages of one of the analogs or dosages of two or more analogs in therapeutic compositions. […]

type 3a follicles = experiment: Pilot study in mice injected IP daily for two weeks: histological count of follicle types per ovary; type: in vivo; settings: for Reduction in number of type 3a follicles: two weeks, vs PBS controls
Description: as §1

[3] = cited from earlier work
[4] = animal metabolic and nutritional studies, human nutritional and cancer studies/clinical trials; cited from earlier work
[5] = women, cited from earlier work
[6] = preliminary dose response studies, mice injected for two weeks

Row | Structure (SMILES) | Duration of Foxo3a mRNA induction (Foxo3a mRNA [1]; SKOV3 cells) | Foxo3a mRNA induction (Foxo3a mRNA [1]; SKOV3 cells, by 4 h, ΔΔCT vs cyclophilin A) | FOXO3a mRNA and protein expression (Foxo3a mRNA [1]; human ovarian carcinoma cells in culture) | Foxo3a protein levels (FOXO3a protein) | FOXO3a mRNA and protein expression (FOXO3a) | Foxo3a mRNA levels in ovary, increase (Foxo3a mRNA [2]; 100 mg/kg IP daily) [fold] | Foxo3a mRNA levels in ovary, increase (Foxo3a mRNA [2]; 600 mg/kg IP daily) [fold] | Increase in mRNA synthesis of FOXO3a in the ovary (Foxo3a mRNA [2]; [6]) | Reduction in number of type 3a follicles (type 3a follicles; 100 mg/kg IP daily) [%] | Reduction in number of type 3a follicles (type 3a follicles; 600 mg/kg IP daily) [%] | Decrease in maturation of primary follicles (type 3a follicles; [6]) | Solubility in aqueous solutions [3] | Side effects [4] | Loss in bone mineral density ([5]; after 24 months of use, average) [%] | Loss in bone mineral density ([5]; between months 12 and 24) [%]
1 | O=CC[C@@H](O)[C@H](O)[C@H](O)CO [2-DG, 2-deoxyglucose] | maintained out to 24 h | approximately 2.5 fold | specific induction | increased | specific induction | ~4 | ~2.75 | 2-4 fold | ~60 | 32 | 32-60% | freely soluble | no documented side effects |  | 
2 | N[C@H](CO)Cc1c[nH]cn1 [His-OH, histidinol, reference compound] |  |  |  | increased |  |  |  |  |  |  |  |  |  |  | 
3 | CC(=O)O[C@]1(C(C)=O)CC[C@H]2[C@@H]3C[C@H](C)C4=CC(=O)CC[C@]4(C)[C@H]3CC[C@@]21C [depot medroxyprogesterone acetate, medroxyprogesterone acetate] |  |  |  |  |  |  |  |  |  |  |  |  |  | 5.7 | 3.2
